Publication PMC6934184, “Selective DNA-PKcs inhibition extends the therapeutic index of localized radiotherapy and chemotherapy” (The Journal of Clinical Investigation, 2019)

Target: T1, BMX (Homo sapiens, UniProt P51813)
T1 construct: purchased Thermo Fisher Scientific (Life Technologies) SelectScreen
Experiment: SelectScreen Z'LYTE
Format: biochemical
Method in brief: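 Compound tested in SelectScreen activity assays, Z'LYTE for CSF1R, CDK1/cyclin B and MAP2K6 and Adapta for CAMK1. ATP for CAMK1 was listed as 10, and Km app was used for CSF1R. Results are expressed in percent.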

T1 sequence (P51813 whole entry): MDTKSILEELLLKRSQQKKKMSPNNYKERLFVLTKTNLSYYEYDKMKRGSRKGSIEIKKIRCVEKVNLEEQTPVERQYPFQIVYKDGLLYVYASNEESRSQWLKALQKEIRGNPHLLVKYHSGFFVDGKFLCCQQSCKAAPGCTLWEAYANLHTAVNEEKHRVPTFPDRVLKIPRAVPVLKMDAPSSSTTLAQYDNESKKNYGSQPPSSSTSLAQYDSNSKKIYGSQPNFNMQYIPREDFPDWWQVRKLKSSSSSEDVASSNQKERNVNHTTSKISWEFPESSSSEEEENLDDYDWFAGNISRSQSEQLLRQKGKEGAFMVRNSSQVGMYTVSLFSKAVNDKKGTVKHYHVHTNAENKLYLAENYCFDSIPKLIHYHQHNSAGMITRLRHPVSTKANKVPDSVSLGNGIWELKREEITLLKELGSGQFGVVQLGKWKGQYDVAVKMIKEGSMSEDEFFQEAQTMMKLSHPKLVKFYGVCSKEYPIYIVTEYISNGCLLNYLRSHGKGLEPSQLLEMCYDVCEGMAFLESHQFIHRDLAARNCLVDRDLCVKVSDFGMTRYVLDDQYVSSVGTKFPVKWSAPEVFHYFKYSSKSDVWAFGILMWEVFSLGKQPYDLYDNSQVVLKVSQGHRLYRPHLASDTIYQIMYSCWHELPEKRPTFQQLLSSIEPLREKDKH

`CN(C(=O)CN1CCOCC1)c1ccc2sc3c(-c4cccc5c(=O)cc(N6CC7CCC(C6)O7)oc45)cccc3c2c1` [NU5455] gave an inhibition at 1 µM of 4.4%.
